Measurements: patent EP1379135B1, “FORMULATIONS COMPRISING ENTRAPPED ACTIVE INGREDIENTS AND USES THEREOF” (THE SCRIPPS RESEARCH INSTITUTE, priority 2001, dated 2002)
“Also recorded” adds a separate entry of the source. Read-outs that look alike come from different tables or passages of the source.

How the values were obtained:
[1] = tested on: IL-1β induced NO production in normal human articular chondrocytes; assay: IL-1β induced NO production in cultured chondrocytes (NO2 accumulation, Griess reaction); type: cell-based
Experimental: Chondrocytes were isolated from the cartilage by collagenase digestion and maintained in continuous monolayer cultures in DMEM containing 10% fetal bovine serum (FBS). Cell viability after chondrocyte isolation by collagenase digestion of normal cartilage was >95%. This level was maintained for at least 96 hrs post mortem. […] Experiments reported were performed with primary or first passage cells.
(§1) Chondrocytes were plated at 40,000 cells/well in 96-well plates in the presence of 1 % FBS. After 48 h, the medium was changed, and the cells were stimulated with IL-1β (Sigma) at a concentration of 5 ng/ml for 24 h. NO production was detected as NO2 accumulation in the culture supernatants by the Griess reaction as described elsewhere (Heval et al., (1994) Methods Enzymol. 233:250). IL-6 in the culture supernatants was measured by ELISA (R&D Systems, Minneapolis, MN) in accordance with the supplier's protocol.

iNOS mRNA = iNOS mRNA expression (Northern Blot); type: cell-based, human
Experimental: Total RNA was isolated from 2 x 10^6 chondrocytes stimulated using the STAT-60 reagent (Tel-Test, Friendswood, TX). RNA for each sample was quantified photometrically, and 5 µg was separated on 1.2% agarose, 6% formaldehyde gels. After electrophoresis, the gels were photographed, and the RNA was transferred onto HybondN nylon membranes (BRL, Baithesburg, MD) by capillary blotting. Membranes were air-dried and incubated for 2 hrs at 80°C. Prehybridization was done for 2 hrs at 60°C in 5 x SCC, 1 mM EDTA, 0.2% SDS and 5 x Denhardt solution. Radio-labeled probe was added and hybridization was carried out overnight at 60°C. After hybridization, the filters were rinsed twice in 2 x SSC, 0.1% SDS, washed once in 2 x SCC, 0.1 % SDS at 60°C and once in 0.2 x SCC, 0.1 % SDS at 60°C. The membranes were covered with plastic wrap and exposed with an intensifying screen for 12 hr at -70°C. The probes used for the hybridization were prepared as described earlier (Geng et al., (1993) J. Immunol. 151:6692; Geller et al., (1993) Proc. Natl. Acad. Sci. USA 90:3491).

IL-6 = IL-6 production in IL-1β stimulated chondrocytes (ELISA); type: cell-based, human; details: p < 0.001
Experimental: as §1

JNK = assay: IL-1β induced MAP kinase activation, JNK (phospho Western blot); type: cell-based, human; details: induced by IL-1β
Experimental: Whole cell extracts were prepared from 3 x 10^6 chondrocytes stimulated as described above by lysing the cells on the plate with ice cold lysis buffer (10 mM TrisHCl pH 7.6, 158 mM NaCl, 1 mM EDTA, 0.1% SDS, 1% Triton X-100, leupeptin […], aprotinin 1µg/ml, and 0.5 mM PMSF), which was added immediately before use. The lysates were transferred to Eppendorf tubes and centrifuged at 20,000 g for 30 min at 4 °C. The supernatants were transferred into fresh tubes, and the protein concentration was determined by Bradford assay. Similar amounts of protein were separated by 10% SDS PAGE and transferred to a nitrocellulose filter (Schleicher & Schuell, Keene, NH) by electroblotting. The filter was blocked overnight in 5% milk powder/TBS-T solution and then further incubated with one of the following antibodies: anti-iNOS (C-19, Santa Cruz Biotechnology, Inc., Santa Cruz, CA), anti-COX-2 (Cayman Chemical, Ann Arbor, MI), anti-COX-1 (H-3, Santa Cruz Biotechnology, Inc.), anti-phospho-JNK (phosphoThr 183 /Tyr 185, New England Biolabs, Inc., Beverly, MA), anti-phospho-p38MAP (phospho-Thr […]/Tyr 182, New England Biolabs, Inc.) or anti-phospho-ERK (phosphoThr 180/Tyr 182, New England Biolabs, Inc.) for 2 hrs. […]

hexosaminidase = assay: IL-1β mediated increase in hexosaminidase secretion in chondrocytes; type: cell-based, human
[2] = In vivo retention of GlcNAc in knee joints after intra-articular administration; design: species or system Wistar rats
Experimental: 50 µl of GlcNAc solution (unlabeled 2.69 mg/ml, labeled 5 µCi/ml, unlabeled:labeled molecule 10,000:1) was injected into knee joint of six rats. These rats (2 animals/time point) were sacrificed at 0, 30 min, and 2 hr after administration of a GlcNAc solution. Two other two rats were injected with normal saline as negative controls. All joints were removed and homogenized with 5 ml of normal saline at 16,000 rpm for about 30 sec. 100 µl of the tissue homogenate was added to 500 µl tissue solubilizer. The solution was incubated at 50 °C for 16 hrs, mixed with 30 µl of glacial acetic acid and 5 ml of liquid scintillation cocktail. The [^3H]GlcNAc activity was measured by a liquid scintillation counter.
Fourteen rats were used for each liposomal formulation. 50 µl of liposome (prepared as disclosed herein, 1.13 µCi/ml, GlcNAc concentration was 0.61 mg/ml, unlabeled:labeled molecule 10,000:1) was injected into each knee joint in twelve rats. Another two rats were injected with 50 µl of normal saline as negative controls. Animals (2 rats/time point) were sacrificed at time points corresponding to 0, 1, 3, 7, 14, 21, and 28 days after administration of GlcNAc. The knee joints were removed and [^3H]GlcNAc activity was determined as disclosed herein.

bradykinin-induced pain = assay: Bradykinin-induced pain after intra-articular administration (walking behavior pain score); type: in vivo; details: Wistar rats, Figure 7
Experimental: The purpose of this study was to investigate the analgesic effects of GlcNAc with or without liposomal formulations, injected intra-articularly into the joint of Wistar rats. Pain was induced by intra-articular administration of bradykinin. Adult male Wistar rats with a weight range from 220g to 250g were obtained from Laboratory Animals Centre, National University of Singapore. Bradykinin and GlcNAc were obtained from Sigma. The liposomes were prepared as described above. 50 µl of GlcNAc solution or an GIcNAc formulated liposome suspension was injected into a rat joint cavity. An equal volume of saline was given intra-articularly as a control. 50 µl of bradykinin (60 µg/ml or at the indicated concentration) was given intra-articularly at different time points following the administration of GlcNAc. Changes in walking behavior caused by intra-articular injection of bradykinin were used to define induced pain criteria in rats. The methods used to observe the pain response are defined in Table 2. The degree of pain was assigned a score according to the criteria in Table 3. Table 2 [table] [table]

IL-1β mediated increase in hexosaminidase secretion (hexosaminidase): did not suppress
half-life ([2]; Wistar, rat, knee joint homogenate, 0.1345 mg per knee joint, single intra-articular administration, saline solution): 4.1 min
GlcNAc retention at the rat knee joints ([2]; after intra-articular administration): moved out of the rat joint rapidly
SMILES: CC(=O)N[C@H]1C(O)O[C@H](CO)[C@@H](O)[C@@H]1O (some centres unmarked) [GlcNAc, N-acetylglucosamine]
NO production triggered by IL-1β [1]: suppressed NO production; also recorded: stronger inhibition of NO production than GA
concentration of maximal inhibitory effect on NO production [1]: 20 mM
concentrations not effective in inhibiting NO production [1]: lower than 1 mM
IC50 ([1]; Homo sapiens, Chondrocyte, IL-1β 5 ng/ml for 24 h, GlcNAc vs GA p < 0.01, read-out: IC50 (inhibition of NO production)): 4.1 ± 1.3 mM
inhibitory activity on IL-1β induced NO production ([1]; concentration of 10 mM): demonstrated inhibitory activity
NO production triggered by IL-1β ([1]; listed as GIcNAc): measurably inhibited NO production in the lower millimolar range
concentrations not effective in inhibiting NO production ([1]; listed as GIcNAc): below 1 mM
expression of iNOS mRNA (iNOS mRNA): strongly inhibited
IL-6 production (IL-6): inhibited
JNK MAP kinase activation (JNK): does not inhibit
analgesic effects on bradykinin-induced pain (pain scores) (bradykinin-induced pain): small, but statistically insignificantly, analgesic effects; also recorded: small, but statistically insignificant, analgesic effects
